In US5807827A, “Des-Tyr dynorphin analogues” (Des-Tyr Dynorphin Partnership, priority 1997, dated 1998):
Ends that are not written are not given here.

How the values were obtained:
[1] = system: morphine tolerant (that is, addicted) mice; experiment: Tail-flick antinociceptive activity of morphine in morphine tolerant animals; assay type: in vivo; conditions: control 2: addicted animals, no peptide
Method: (§1) Analgesia was measured by the tail-flick method of D'Amour and Smith, J. Pharmac. Exp. Ther. , 72, pp. 74-79 (1941), incorporated herein by reference, as modified by Tulunay and Takemori, J. Pharmac. Exp. Ther., 190, pp. 395-400 (1974), incorporated herein by reference. For ED50 (e.g., effective does for 50% of the test group) determinations, the animals' responses were made quantal by establishing an endpoint which represented a significant increase in reaction time. The endpoint was an increase in reaction time of an individual animal of greater than 3 SD (e.g., standard deviation) of the control mean reaction time for all animals used in the assay. The usual control mean reaction time was 3.1±0.05 sec. Nonresponding animals were removed from the heat stimulus when reaction time exceeded 10 sec. to avoid tail damage.
(§2) Drugs were injected 30 minutes prior to testing, unless otherwise indicated. Morphine was injected subcutaneously (s.c.) whereas the peptides were injected (i.v.) in […] saline.
(§3) Morphine tolerance was established by implanting morphine pellets, 75 mg base, subcutaneously by the method of Way et al., J. Pharmac. Exp. Ther., 167, pp. 1-8 (1969), incorporated herein by reference. The drug used was morphine sulfate (Mallinckrodt Chemical Works, St. Louis, Mo.). […]

[2] = system: naive, unaddicted (that is, normal) animals; experiment: Tail-flick antinociceptive activity of morphine in naive animals; assay type: in vivo, mice; conditions: control 1: naive, no peptide
Method: as §1, §2, §3

[3] = system: morphine tolerant (addicted) animals; experiment: Naloxone-precipitated narcotic withdrawal (withdrawal jumping) in morphine pellet-implanted animals; assay type: in vivo, mice
Method: Morphine tolerance was established by implanting morphine pellets, 75 mg base, subcutaneously by the method of Way et al., J. Pharmac. Exp. Ther., 167, pp. 1-8 (1969), incorporated herein by reference. The drug used was morphine sulfate (Mallinckrodt Chemical Works, St. Louis, Mo.). The ED50 values, their 95% confidence limits and significance of the potency ratio between two ED50. values were determined by the method of Litchfield and Wilcoxon, J. Pharmac. Exp. Ther., 96, 99-113 (1949), incorporated herein by reference.
The morphine tolerant (addicted) animals had pellets implanted for three days. The animals were then challenged with naloxone doses (while the morphine pellet remained in place). […] Table 1 summarizes the data for the control animals and for groups of animals treated with three different peptides. Each peptide was in a dose of 5 μmol/kg i.v. before administration of the naloxone.
However, when any of the three peptides shown in Table 1 was administered five minutes before administration of the naloxone, then much more naloxone was needed to precipitate the animal into a state of narcotic withdrawal. This means that each of the three peptides shown in Table 1 caused the addicted animal to be not as dependent on morphine as it would be without such pretreatment.
The animals and test procedures used were analogous to those described in Example 1. […]

opioid receptor = conditions: cited from earlier work
[4] = system: macrophage-colony stimulating factor; conditions: mice treated with chronic morphine; cited from earlier work
[5] = system: hosts tolerant to narcotic analgesic; conditions: cited from earlier work

CN1CC[C@]23c4c5ccc(O)c4O[C@H]2[C@@H](O)C=C[C@H]3[C@H]1C5 [Morphine, morphine]
Tolerance Index ([1]; relative to naive control): 8.5 (5.7-12.--)
Morphine ED50 ([1]; tail flick): 55.6 (42.6-73.5) μmol/kg s.c.
Morphine ED50 [2]: 6.5 (5.0-8.9) μmol/kg s.c.

C=CCN1CC[C@]23c4c5ccc(O)c4O[C@H]2C(=O)CC[C@@]3(O)[C@H]1C5 [Naloxone, naloxone]
ED50 ([3]; Mus musculus, control addicted animals, no peptide (base line)): 79 µmol/kg

GFLRRIRPKLK [Dyn (3-13), Gly-Phe-Leu-Arg-Arg-Ile-Arg-Pro-Lys-Leu-Lys]
Observed behaviour of treated animals ([3]; Example 3): lethargic and exhibited partial paralysis of their hind quarters

Gly-Gly-Phe-Leu-Arg-Arg-Ile-Arg-Pro-Lys-Leu-Lys [des-Tyr Dyn A (1-13)]
Competition in assays with various ligands (opioid receptor): did not compete at all

Tyr-Gly-Gly-Phe-Leu-Arg-Arg-Ile-Arg-Pro (YGGFLRRIRP-NH2) [SEQ ID NO:3]
Block of opioid inhibition of macrophage-colony stimulating factor [4]: block the opioid inhibition of macrophage-colony stimulating factor of morphine in a dose-dependent manner

Tyr-Gly-Gly-Phe-Leu-Arg-Arg-Ile-Arg-Pro-Lys-Leu-Lys (YGGFLRRIRPKLK) [SEQ ID NO:2]
Block of opioid inhibition of macrophage-colony stimulating factor [4]: block the opioid inhibition of macrophage-colony stimulating factor of morphine in a dose-dependent manner
Effect on analgesic effect of narcotic analgesic [5]: potentiates the analgesic effect in tolerant hosts
